Source: paper PMC13199644, “Optimized Quantitative Bacterial Two-Hybrid (qB2H) for Protein–Protein Interaction Assessment” (Computational and Structural Biotechnology Journal, 2026)
No end group written: not given here.

What was measured:
ASF1BN [1] = experiment: qB2H v4 binder selection, long-term turbidostat (Chi.Bio), kanamycin 209 μg/ml, NGS enrichment/frequency; format: cell-based; details: kanamycin 209 μg/ml (120% MIC50), TF/T0 frequency ratio
Description: (§1) Design and selection of binders
(§2) An AI pipeline integrating RFdiffusion, ProteinMPNN, and AlphaFold2 (detailed in Supplementary Methods) was implemented to design N-terminal extensions of ip4_mutG, a weak ASF1 binder (Kd ~10 μM). Briefly, N-terminal extensions of 11 to 16 amino acids were fused to linkers (GSEAK, GSEK, or GSK) and appended to the ip4_mutG coding sequence. Rational designs and controls (flexible N-terminal extensions) were incorporated into the library, ordered as oligonucleotide pools (oPools, IDT), and cloned into the v4 series plasmid for transformation into SB39 cells. Library selection was performed in 2 experimental setups: (a) short batch selection and (b) prolonged continuous selection in a turbidostat (Chi.Bio [61]).
(§3) In the batch selection, induced cultures diluted to OD600 = 0.05 were exposed to kanamycin concentrations ranging from 0 to 348 μg/ml. […] Cultures were maintained at OD600 0.4 for 21 or 29 h, followed by an additional 3-h growth period after sample collection, totaling 24 and 32 h.
(§4) Plasmids extracted from samples taken before (T0) and after selection (TF) were sequenced by NGS (Illumina), and reads corresponding to expected sequences were quantified to assess relative frequencies and enrichment.
Long selection runs (continuous cultures under stable cell density—turbidostat)
Culture conditions before kanamycin-based selection were identical to those in “short selection runs in batches” including T0 sample preparation. However, the turbidostat function of Chi.Bio system^11,12 was used to implement a continuous culture over extended selection periods. […] Samples (10 mL) were recovered at 21 and 29 h after selection initiation and cultured for an additional 3 hours (final OD ~ 2.5) totalizing, respectively, 24 (TF_24h) or 32 hours (TF_32h) selection.
(§5) NGS sample preparation and analysis
(§6) NGS samples were prepared by PCR using primer OR2895 with one of primers from OR2890– OR2894: 98 °C for 1 min; 26 cycles of (98 °C for 15 s.; 65 °C for 15 s.; 72 °C for 1 min) and 72 °C for 3 min.
(§7) FASTQ-formatted assembled paired-end reads corresponding to the expected sequences were counted and their frequencies calculated. Enrichment of each variant was obtained by the TF/T0 frequency ratio.

SMT3 = biological target: T1, SMT3 (Saccharomyces cerevisiae, UniProt Q12306); experiment: qB2H v1 fluorescence, SMT3 (SUMO) vs SUMO-interacting motifs; format: cell-based, Escherichia coli; details: BL21(DE3), qB2H v1, cI-SMT3 2-97, IPTG(20µM)
T1 construct: SMT3; UNIPROT: Q12306; 2-97; Saccharomyces cerevisiae; expressed in transfected cells; host or cells: E. coli BL21(DE3) transformed with VN594 plus a pBRα rpoA-fusion plasmid
T1 sequence (Q12306 2-97): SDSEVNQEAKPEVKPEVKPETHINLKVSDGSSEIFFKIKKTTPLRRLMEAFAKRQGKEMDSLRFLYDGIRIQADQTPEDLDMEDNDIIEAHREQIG
Description: Precultures of untransformed (for intrinsic fluorescence evaluation) and transformed SB39 cells were diluted (3 μl into 300 μl of fresh medium) in 2-ml microtubes and grown in ThermoMixer C (Eppendorf; 37 °C at 900 rpm) for 2 h. Cultures with an OD600 of approximately 0.5 were then mixed with 100 μl of the same medium containing 4× inducer concentration. […] The induced cultures were grown overnight at 18 °C, diluted (1 μl) in freshly filtered (0.22 μm) phosphate-buffered saline buffer (1 ml per OD unit), and analyzed using guava easyCyte HT (488-nm blue laser). The gating for event analysis was set to minimize background noise (fewer than 100 gated events per 10 μl of sterile phosphate-buffered saline). Ten thousand events were collected per culture, and the MFI was recorded. […] Their MFI were used to normalize those of other conditions (x) using the following equation [Eq. (1)]: Normalized MFIx=MFIx−MFIlow/MFIhigh−MFIlow × 100 (1)
MFI(x) represents the MFI of a given condition or culture. […] Each experiment was conducted in 3 independent assays performed on different days. Figures were generated using Python notebooks in conjunction with Matplotlib.
Interactions involving distinct protein domains and folding variants were assessed using qB2H systems v1, v2, and v3. […] The x-axis labels indicate the qB2H version and the interacting partners, formatted as follows: (qB2H version) Partner_A–Partner_B (inducers). Anhydrotetracycline (aTc) concentrations are reported in ng/mL; IPTG concentrations are given in µM. All experimental conditions, acronyms, and constructs are defined in the Methods section.

ASF1BN [2] = experiment: qB2H v4 binder selection, short-term batch, kanamycin, NGS enrichment/frequency; format: cell-based, bacterial; details: 4 to 5 h, SB39 v4, TF/T0 frequency ratio
Description: as §1, §2, §3, §4
Short selection runs (batches)
Glycerol stocks of mixed libraries were inoculated at approximately 18:00 in fresh media and grown overnight at 30 °C, to slow growth kinetics and reduce saturation-related stress (by decreasing the time spent in stationary phase). The grown cultures were diluted to OD600 = 0.05 in 150 mL of LB supplemented with 17 µg/mL chloramphenicol, 200 µM IPTG, 200 ng/mL aTc, and incubated (200 rpm, 37 °C) for 2 h (OD600 ~ 0.5). […] Assuming that sufficiently strong selection pressure can impact population growth over a short term (few hours), only cultures with OD at least 0.5 absorbance units lower than the OD of the culture without kanamycin after 4.5–5 h were retained for NGS analysis (TF-[ X µg/mL kan] samples).
as §5, §6, §7

TNFa = experiment: qB2H v3 fluorescence, TNFa vs VHH/ScFv; format: cell-based, Homo sapiens; details: SB39, v3, cI-TNFa 77-233, aTc(200ng/mL) + IPTG(1000µM)
Description: (§8) Precultures of untransformed (for intrinsic fluorescence evaluation) and transformed SB39 cells were diluted (3 μl into 300 μl of fresh medium) in 2-ml microtubes and grown in ThermoMixer C (Eppendorf; 37 °C at 900 rpm) for 2 h. Cultures with an OD600 of approximately 0.5 were then mixed with 100 μl of the same medium containing 4× inducer concentration. Final inducer concentrations, chosen on the basis of maximal signal output, were 20 μM IPTG for v1 or v2 and 200 μM IPTG plus […] for v3 series. The induced cultures were grown overnight at 18 °C, diluted (1 μl) in freshly filtered (0.22 μm) phosphate-buffered saline buffer (1 ml per OD unit), and analyzed using guava easyCyte HT (488-nm blue laser). The gating for event analysis was set to minimize background noise (fewer than 100 gated events per 10 μl of sterile phosphate-buffered saline). Ten thousand events were collected per culture, and the MFI was recorded. […]
(§9) MFI(x) represents the MFI of a given condition or culture. MFI(low) corresponds to the fluorescence produced by SB39 cells cotransformed with VN519 and VN550, indicating no detectable interaction (Kd > 100,000 nM). […]
Interactions involving distinct protein domains and folding variants were assessed using qB2H systems v1, v2, and v3. […]

ASF1BN [3] = experiment: qB2H fluorescent reporter (eGFP MFI, flow cytometry or colonies), ASF1BN, v1 to v3; format: cell-based, human; details: relative to ip3_mut3A and ip1
Description: qB2H experiments using a fluorescent reporter
as §8, §9

[4] = ChiBio_T24_Kan209, turbidostat 24 h
[5] = ChiBio_T32_Kan209, turbidostat 32 h
[6] = Batch_Kan261, kanamycin 261 μg/ml (150% MIC50 of ASF1–ip3)
[7] = Batch_Kan348, kanamycin 348 μg/ml (200% MIC50 of ASF1–ip3)

AAEEAARFAALLAALP-GSK-ip4_mutG [T32_Kan[209]_top2, AI design n°218 with GSK linker]
enrichment (ASF1BN [1]; [4]): 7.72E+01 | enrichment (ASF1BN [1]; [5]): 8.39E+01

CDC48 72-91: CDC48 P25694 region 72-91, SUMO-interacting motif peptide (KKRKDTVLIVLIDDELEDGA; UniProt P25694 72-91, looked up, fragment)
Norm. MFI (SMT3): 46.16%

CDC48 431-450: CDC48 P25694 region 431-450, SUMO-interacting motif peptide (QQIREKMDLIDLDEDEIDAE; UniProt P25694 431-450, looked up, fragment)
Norm. MFI (SMT3): 9.91%

KPEAAASAAAEQAAFAALLAALPGSKWARLARRTAGAGGVTLNGAG [AI design n°217 with GSK linker]
enrichment (ASF1BN [2]; [6]): 3.15E+00

KPEAAASAAAEQAHFAALLAKLPGSKWARLARRTAGAGGVTLNGAG [AI design n°225 with GSK linker]
enrichment (ASF1BN [2]; [7]): 4.18E+00

KPEAAASAAEEQAAFDALLAALPGSKWARLARRTAGAGGVTLNGAG [AI design n°261 with GSK linker; third of turbidostat T32_Kan[209]]
enrichment (ASF1BN [1]; [4]): 6.25E+00 | enrichment (ASF1BN [1]; [5]): 1.11E+01

KPEAAASAEAEAARFAALLAALPGSKWARLARRTAGAGGVTLNGAG [AI design n°220 with GSK linker]
enrichment (ASF1BN [1]; [4]): 4.84E-02 | enrichment (ASF1BN [1]; [5]): 5.25E-02

KPEAAASAEAERWAQALAALPGSKWARLARRTAGAGGVTLNGAG [AI design n°32 with GSK linker]
enrichment (ASF1BN [2]; [6]): 4.25E+00

KPEAAASAEEEEAAFAALLAALPGSKWARLARRTAGAGGVTLNGAG [AI design n°233 with GSK linker]
enrichment (ASF1BN [1]; [4]): 1.42E+00 | enrichment (ASF1BN [1]; [5]): 2.04E+00

KPEAAASAEEEQARFAALLAALPGSKWARLARRTAGAGGVTLNGAG [AI design n°250 with GSK linker]
enrichment (ASF1BN [2]; [7]): 4.27E+00

KPEAAASDAAARFAAALAALPGSKWARLARRTAGAGGVTLNGAG [AI design n°37 with GSK linker]
enrichment (ASF1BN [2]; [6]): 4.90E+00

KPEAAASMSSHQLWKQWGGGSEKWARLARRTAGAGGVTLNGAG [Rational design n°84 with GSEK linker]
enrichment (ASF1BN [2]; [6]): 2.46E+00

KPEAAASSAAERFAAALAALPGSKWARLARRTAGAGGVTLNGAG [AI design n°47 with GSK linker; third of batch Kan[348]]
enrichment (ASF1BN [2]; [7]): 4.66E+00

ScFv (D2E7): Adalimumab ScFV; WIPO: WO2011084714A2
Norm. MFI (TNFa): 8.76%

Srs2_SIM: SUMO-interacting motif, P12954 1164-1174, Saccharomyces cerevisiae (KLNNGEIIVID; UniProt P12954 1164-1174, looked up, fragment)
Norm. MFI (SMT3): 62.95%

WARLARRTAGAGGVTLNGAG [ip4_mutG]
qB2H signal (ASF1BN [3]): between ip3_mut3A and ip1
